Laboratory results: patent US7879835B2 (Korea Research Institute of Chemical Technology, priority 2004, dated 2011)

Key:
[1] = tested on: MG-63 cells; experiment: Cytotoxicity test against osteoblast (MTT); format: cell-based, human
Description: In order examine the toxicities of the compounds of the Examples against osteoclast pregenitors, pregenitor cells were aliquotted onto a 96-well microplate at a density of 2×10^5 cells per well, treated with 2, 4 and 8 μM of the test compounds, respectively, and cultured for 48 hrs in α-MEM supplemented with 20 ng/ml of M-CSF (Peprotech, USA) using 37° C. incubator (5% CO2). At 3 hrs before the culture was finished, 50 μl of MTT (3-(4,5-dimethylthiazol-2-yl)-2,5-diphenyltetrazolium bromide) solution (50 μg/ml) was added to each well. Upon completion of the cell culture, the supernatant was removed, and the precipitated dye was reacted with 100 μl of isopropanol/0.04 N HCl at room temperature for 30 min to dissolve it. The absorbances of the wells were measured at 550 nm, and the relative absorbance of each well relative to that of the control (set as 100) is shown in Table 6.
In order to examine the toxicity of the compounds of the Examples against osteoblasts, human osteosarcoma-derived cell line, MG-63 (ATCC No. CRL-1427) cells were treated with 0.1, 0.3, 1.0 and 3.0 μM of the compounds of the Examples, and cultured in DMEM supplemented with 10% FBS (fetal bovine serum).

[2] = tested on: osteoclast (TRAP-positive multinuclear cell) formation; experiment: Inhibitory effect on osteoclast formation (TRAP staining); format: cell-based, mice; conditions: compared to control; for inhibition at 0.1 µM / inhibition at 0.3 µM / inhibition at 1 µM / inhibition at 3 µM: Mus musculus, Osteoclast, read-out: Osteoclast formation inhibitory effects (%); for inhibition at 0.1 µM: 0.1 μM (Table 4b); for inhibition at 0.3 µM: 0.3 μM (Table 4b); for inhibition at 1 µM: 1 μM (Table 4b); for inhibition at 3 µM: 3 μM (Table 4b); for Osteoclast formation inhibitory effects (%): 8 days culture with M-CSF and RANKL
Description: The inhibitory activities of the alpha-arylmethoxyacrylate derivatives prepared in the above Examples on the proliferation of osteoclasts were examined as follows.
First, a bone marrow sample containing osteoclast pregenitor cells was isolated as follows. After sacrificing 7 to 9 week-old female mice by cervical dislocation, femur and tibia were excised aseptically while removing soft tissues attached thereto, After cutting both ends of the long bones, 1 ml of an enzyme solution containing 0.1% collagenase (Gibco), 0.05% trypsin and 0.5 mM EDTA (Gibco) was injected into the bone marrow cavity at one end using a syringe with a 26-gauge needle, and the bone marrow was then collected. After stirring the recovered bone marrow for 30 min, the precipitated bone marrow cells were collected, and cultured in α-minimum essential medium (α-MEM) supplemented with 10% FBS for 24 hrs. Then, non-adherent cells, which are osteoclast pregenitors, were aliquoted onto a culture plate at a density of 2×10^5 cells per well, and cultured for 8 days in α-MEM supplemented with 20 ng/ml of macrophage-colony stimulating factor (M-CSF, Peprotech, USA), 30 ng/ml RANKL (Peprotech, USA), and 0.3, 1.0 or 3 μM of the compounds of the Examples. Control cells were cultured at the same condition except not adding the compounds of the Examples.
After cell culture for 8 days, the adherent cells were washed with PBS and fixed with citrate-acetate-formaldehyde for 5 min. The fixed cells were incubated at 37° C. for 1 hr in acetate buffer (pH 5.0) containing naphthol AS-BI phosphate, fast Garnet GBC solution and 7 mM tartrate buffer (pH 5.0) to conduct TRAP (tartrate-resistant acid phosphatase) staining.

[3] = In vitro pharmacokinetics: metabolic stability in liver microsome; format: in vitro ADME; conditions: human liver microsome 1 mg/ml, 20 μM compound; for half-life at 20 µM: liver microsomes
Description: Metabolic stabilities of the compounds of the Examples were examined by employing microsome samples prepared from the human liver.
Each 20 μM of the compounds were reacted with 1 mg/ml of liver microsome and the half-lives and one-hour stabilities of the compounds were determined.

[4] = In vivo pharmacokinetics using female mice (serum concentration, HPLC); conditions: I.V.; for clearance / Half-life / Vd: mouse, serum, iv; for clearance: read-out: CL (clearance) (converted); for Half-life: read-out: Half-life (converted); for Vd: read-out: Vd (volume of distribution)
Description: Female mice each weighing […] were divided into groups of 5 mice each. The mice were anesthetized with ether, catheterized in their femoral artery and vein, respectively, and administered with 0.5 mg/kg body weight of compounds 234 and 274, and 5 mg/kg body weight of compounds 388, 404 and 415, respectively, via intravenous injection. Alternatively, 15 mg/kg body weight of compound 274 and 10 mg/kg body weight of compound 234 were orally administered to the mice.
At 0, 5, 10, 15 and 30 minutes and 1, 2, 4, 6, 9 and 12 hours after the intravenous injection, or at 0, 10, 20 and 40 minutes and 1, 2, 4, 6, 9 and 12 hours after the oral administration, 0.3 ml blood samples were taken from the mice through femoral artery. The blood samples were kept on an ice bath for 30 minutes and centrifuged at 3,000 rpm for 10 minutes to obtain a supernatant (serum). The supernatant samples were stored at −20° C.
Standard solution: Compounds 234, 274, 388, 404 and 415 were respectively dissolved in methanol to a concentration of 1 mg/ml to obtain stock solutions. The stock solutions were diluted with methanol to obtain standard solutions having concentrations of 40, 20, 10, 2, 1, 0.5, 0.2, 0.05 and 0.02 μg/ml, respectively.
Standard calibration curve: A stand calibration curve was prepared by employing calibration concentrations of 0.002, 0.005, 0.02, 0.05, 0.1, 0.2, 1, 2 and 4 μg/ml.
10 μl each of the standard solutions prepared above was added to 100 μl of normal serum sample and diluted 10 times. 250 μl of acetonitrile was added to the resulting dilution and the mixture was centrifuged for 10 minutes to obtain a supernatant. 300 μl of the supernatant was dried by evaporation under a nitrogen atmosphere and reconstituted by adding 50 μl of methanol. 20 μl of the resulting solution was analyzed by HPLC to prepare a standard calibration curve. HPLC was performed with Shimadzu ODS2 column (4.6×250 mm, 5 μm by employing a mixture of methanol/water (90/10 (v/v)) as the mobile phase at a flow rate of 1.2 ml/min, and measuring the absorbance at 240 nm.
Extraction: 100 μl of the serum sample obtained in (4-2-1) was put into a 1 ml microtube and 10 μl of methanol was added thereto. 250 μl of acetonitrile was added to the microtube and the mixture was centrifuged for 10 minutes to obtain a supernatant. 300 μl of the supernatant was dried by evaporation under a nitrogen atmosphere and reconstituted by adding 50 μl of methanol. 20 μl of the resulting solution was analyzed by the HPLC method as above.
Average concentrations of the compounds in the serum samples were plotted in a semi-log scale against the time lapsed after the administration, and the pharmacokinetic parameters were determined as a non-compartment open model by employing WinNonlin® program (Pharsight Corporation).

[5] = tested on: osteoclasts; experiment: Inhibitory effect on resorption activity of osteoclast (resorption pit area on calcium phosphate-coated plate); format: cell-based, mice; conditions: compared to control
Description: After finishing culture, the plate was washed with distilled water, and 50 μl/well of 5% sodium hypochlorite was added to the plate. The plate was let alone for 5 min, washed again with distilled water to remove the adherent cells, and dried at room temperature. Then, the area of formed resorption pits was calculated by means of Image Pro Plus software (Media Cybernetics Ver. 3.0).

[6] = tested on: rats; experiment: In vivo acute toxicity test (LD50); conditions: single dose, 2 weeks observation
Description: In order to determine the acute toxicities of the compounds prepared in Examples, 6-week old specific pathogen-free (SPF) rats each weighing […] were divided into groups of 10 rat each.
In case of subcutaneous administration, each of the compounds was dissolved in 5% PEG400 solution to a concentration of 20 mg/ml, the resulting solution was serially diluted with 5% PEG400 solution to concentrations of 5, 2.5, 1.25 and 0.625 mg/ml, and the dilutions were subcutaneously injected once to the rats at a dose of 10 ml/kg body weight.
In case of oral administration, each of the compounds was dissolved in soybean oil to a concentration of 180 mg/ml, the resulting solution was serially diluted with soybean oil to concentrations of 80, 20 and 5 mg/ml, and the dilutions were orally administered once to the rats at a dose of 20 ml/kg body weight. […]
During 2 weeks after the administration of the compounds, the death rate, clinical symptoms and weight changes of the rats were observed, and hematological and biochemical tests on blood samples were performed. Then, the rats were sacrificed and the internal organs were visually examined to check any abnormal signs in the organs of chest and abdomen.

Compound: CO/C=C(/C(=O)OC)c1ccc(Cl)cc1COc1cccc(N2CCOCC2)c1 [Compound No. 386, (E)-methyl-2-[2-((3-morpholinophenoxy)methyl)-4-chlorophenyl]-3-methoxyacrylate]
- relative absorbance (MTT) relative to control (set as 100) ([1]; 0.33 μM compound): 101
- relative absorbance (MTT) relative to control (set as 100) ([1]; 1 μM compound): 69
- relative absorbance (MTT) relative to control (set as 100) ([1]; 3 μM compound): 68
- inhibition at 0.1 µM [2]: 100%
- inhibition at 0.3 µM [2]: 100%
- inhibition at 1 µM [2]: 100%
- inhibition at 3 µM [2]: 100%
- half-life at 20 µM [3]: 40.7 min

Compound: CO/C=C(/C(=O)OC)c1ccccc1COc1cccc(CN2CCOCC2)c1 [Compound No. 404, (E)-methyl-2-[2-((3-(morpholinomethyl)phenoxy)-methyl)phenyl]-3-methoxyacrylate]
- relative absorbance (MTT) relative to control (set as 100) ([1]; 0.33 μM compound): 83
- relative absorbance (MTT) relative to control (set as 100) ([1]; 1 μM compound): 92
- relative absorbance (MTT) relative to control (set as 100) ([1]; 3 μM compound): 94
- inhibition at 0.3 µM [2]: 9%
- inhibition at 1 µM [2]: 63%
- inhibition at 3 µM [2]: 100%
- half-life at 20 µM [3]: 57.4 ± 2.3 min
- AUC (area under the curve of blood concentration versus time) [4]: 97.2 ± 14.8 µg·h/mL
- clearance [4]: 0.0567 mL/min
- Half-life [4]: 612 ± 114 min
- Vd [4]: 0.0462 ± 0.0064 L/kg

Compound: CO/C=C(/C(=O)OC)c1ccccc1COc1cccc(N2CCCC2)n1 [Compound No. 415, (E)-methyl-2-[2-((6-(pyrrolidin-1-yl)pyridin-2-yloxy)-methyl)phenyl]-3-methoxyacrylate]
- inhibition at 0.1 µM [2]: 5%
- inhibition at 0.3 µM [2]: 57%
- inhibition at 1 µM [2]: 100%
- inhibition at 3 µM [2]: 100%
- half-life at 20 µM [3]: 24.9 min
- AUC (area under the curve of blood concentration versus time) [4]: 176.4 ± 32.9 µg·h/mL
- clearance [4]: 0.0317 mL/min
- Half-life [4]: 647 ± 96.6 min
- Vd [4]: 0.027 ± 0.0012 L/kg

Compound: CO/C=C(/C(=O)OC)c1ccccc1COc1ccc(N(C)CC(C)C)cc1F [Compound No. 426, (E)-methyl-2-[2-((4-(N-isobutyl-N-methylamino)-2-fluorophenoxy)methyl)phenyl]-3-methoxyacrylate]
- inhibition at 0.1 µM [2]: 25%
- inhibition at 0.3 µM [2]: 100%
- inhibition at 1 µM [2]: 100%
- inhibition at 3 µM [2]: 100%
- half-life at 20 µM [3]: 42.7 ± 2.1 min

Compound: CO/C=C(/C(=O)OC)c1ccccc1COc1ccc(C2OCCCO2)cc1 [compound 161]
- Reduction (%) of the resorption pit area of osteoclasts ([5]; 0.3 uM): 94%
- Reduction (%) of the resorption pit area of osteoclasts ([5]; 1 uM): 100%
- Reduction (%) of the resorption pit area of osteoclasts ([5]; 3 uM): 100%
- Osteoclast formation inhibitory effects (%) ([2]; 0.3 μM): 19%
- Osteoclast formation inhibitory effects (%) ([2]; 1.0 μM): 100%
- Osteoclast formation inhibitory effects (%) ([2]; 3.0 μM): 100%
- Half-life [3]: 45.6 min
- One-hour stability [3]: 40%

Compound: CO/C=C(/C(=O)OC)c1ccccc1COc1cccc(C(C)F)c1 (centres unmarked) [compound 169]
- LD50 ([6]; PO): >1000 mg/kg body weight
- LD50 ([6]; SC): 10 mg/kg body weight

Compound: CO/C=C(/C(=O)OC)c1ccccc1COc1cccc(N2CCN(C)CC2)c1 [compound 391]
- relative absorbance (MTT) relative to control (set as 100) ([1]; 0.33 μM compound): 104
- relative absorbance (MTT) relative to control (set as 100) ([1]; 1 μM compound): 99
- relative absorbance (MTT) relative to control (set as 100) ([1]; 3 μM compound): 111
- inhibition at 0.3 µM [2]: 4%
- inhibition at 1 µM [2]: 50%
- inhibition at 3 µM [2]: 100%
- half-life at 20 µM [3]: 107 ± 18.6 min

Compound: CO/C=C(/C(=O)OC)c1ccc(Cl)cc1COc1ccc(N2CCOCC2)cn1 [compound 394]
- relative absorbance (MTT) relative to control (set as 100) ([1]; 0.33 μM compound): 113
- relative absorbance (MTT) relative to control (set as 100) ([1]; 1 μM compound): 105
- relative absorbance (MTT) relative to control (set as 100) ([1]; 3 μM compound): 110
- inhibition at 0.1 µM [2]: 0%
- inhibition at 0.3 µM [2]: 98%
- inhibition at 1 µM [2]: 100%
- inhibition at 3 µM [2]: 100%
- half-life at 20 µM [3]: 55.5 ± 12 min

Compound: CO/C=C(/C(=O)OC)c1ccccc1COc1ccc(N2CCCCC2)cc1 [compound 399]
- relative absorbance (MTT) relative to control (set as 100) ([1]; 0.33 μM compound): 96
- relative absorbance (MTT) relative to control (set as 100) ([1]; 1 μM compound): 76
- relative absorbance (MTT) relative to control (set as 100) ([1]; 3 μM compound): 65
- inhibition at 0.1 µM [2]: 0%
- inhibition at 0.3 µM [2]: 70%
- inhibition at 1 µM [2]: 100%
- inhibition at 3 µM [2]: 100%
- half-life at 20 µM [3]: 43 ± 1.8 min

Compound: CO/C=C(/C(=O)OC)c1ccccc1COc1ccc(N2CCCCC2)c(F)c1 [compound 416]
- inhibition at 0.1 µM [2]: 0%
- inhibition at 0.3 µM [2]: 75%
- inhibition at 1 µM [2]: 100%
- inhibition at 3 µM [2]: 100%
- half-life at 20 µM [3]: 43.9 min
